Data: the NIST ThermoML archive (doi:10.1016/j.fluid.2010.03.012)

Assay: osmotic coefficient (dimensionless); mn = molality of the nth substance listed, in mol/kg
Settings: 101 kPa, Liquid, isopiestic method

C1CN2CN3CCN(CN1C3)C2 [1,3,6,8-tetraazatricyclo[4.4.1.1(3,8)]dodecane] + O
Settings | osmotic coefficient
288.15 K, m1 = 0.2149 | 0.9605
288.15 K, m1 = 0.2154 | 0.9583
288.15 K, m1 = 0.3036 | 0.9533
288.15 K, m1 = 0.3041 | 0.9518
288.15 K, m1 = 0.5049 | 0.9571
288.15 K, m1 = 0.5066 | 0.9563
288.15 K, m1 = 0.603 | 0.9824
288.15 K, m1 = 0.604 | 0.9816
288.15 K, m1 = 0.7629 | 1.016
288.15 K, m1 = 0.7638 | 1.015
288.15 K, m1 = 1.011 | 1.1
293.15 K, m1 = 0.2023 | 0.991
293.15 K, m1 = 0.2031 | 0.9887
293.15 K, m1 = 0.3454 | 0.9917
293.15 K, m1 = 0.3458 | 0.9907
293.15 K, m1 = 0.5003 | 0.993
293.15 K, m1 = 0.5009 | 0.9919
293.15 K, m1 = 0.7613 | 1.035
293.15 K, m1 = 0.7629 | 1.033
293.15 K, m1 = 0.9099 | 1.056
293.15 K, m1 = 0.9108 | 1.055
293.15 K, m1 = 1.068 | 1.119
293.15 K, m1 = 1.069 | 1.118
298.15 K, m1 = 0.2201 | 1.014
298.15 K, m1 = 0.2205 | 1.012
298.15 K, m1 = 0.3086 | 1.017
298.15 K, m1 = 0.3087 | 1.016
298.15 K, m1 = 0.5052 | 1.028
298.15 K, m1 = 0.5055 | 1.027
298.15 K, m1 = 0.562 | 1.032
298.15 K, m1 = 0.5624 | 1.032
298.15 K, m1 = 0.7125 | 1.045
298.15 K, m1 = 0.9849 | 1.075
298.15 K, m1 = 0.9867 | 1.073
303.15 K, m1 = 0.2074 | 0.972
303.15 K, m1 = 0.2079 | 0.9707
303.15 K, m1 = 0.3266 | 0.9871
303.15 K, m1 = 0.3271 | 0.9863
303.15 K, m1 = 0.5022 | 1.015
303.15 K, m1 = 0.5029 | 1.014
303.15 K, m1 = 0.6864 | 1.033
303.15 K, m1 = 0.6868 | 1.034
303.15 K, m1 = 0.7946 | 1.057
303.15 K, m1 = 0.7955 | 1.057
303.15 K, m1 = 1.028 | 1.103
303.15 K, m1 = 1.029 | 1.102
